The subject of series [1] is hCMEC/D3 endothelial cells. In words: Cell uptake in endothelial cells (flow cytometry). It counts as cell-based, human. The note with it: 4 hours of incubation, 50 μg mL^−1. The method, then:
TPGnRH was labelled with Texas Red (TR) according to the manufacturer's protocol. Endothelial cells were seeded (227,000 cells/cm^2) in 24-well plates, allowed to attach for 24 hours, and then media was replaced by fresh media containing TR-TPGnRH at 50 μg mL^−1 in PBS. Cells were either incubated at 4 or 37° C. for 1 and 4 hours. At the end of a time-point, cells were washed with HBSS to remove the free nanofibers, incubated with 500 μL of TrypLE Express Enzyme and collected by centrifugation. The cell pellet was then re-suspended in PBS, and cells were analysed in BD FACS Calibur™ flow cytometer (BD Biosciences, Wiltshire, UK) acquiring at least 10,000 events. Data were analysed in FlowJo® Software 10.1. Unstained cells were used as a control in the flow cytometry settings.
A general note: Flow cytometry measures light scatter and fluorescence of single cells or particles in a stream.

Series [2] is described as follows: Permeability across in vitro blood-brain barrier model. The method, then:
(§1) In order to test the permeability of TPGnRH nanofibers across the blood-brain barrier (BBB), a static contact co-culture was set up according to a previous method^7. Briefly, human astrocytes (SC-1800, 25,000 cells/well) were seeded on the abluminal side of a 24-well plate Transwell polycarbonate membrane (3 μm of a pore size, Corning Star, Deeside, UK) coated with human fibronectin. Cells were allowed to attach for 3 days, and then human brain microvascular endothelial cells (hCMEC/D3, 75,000 cells/well) were seeded on the luminal side of the Transwell and co-cultured with astrocytes for five days with a daily change of the media. Transendothelial resistance was measured using EVOM voltohmmeter (World Precision Instruments, Berlin, Germany).
(§2) Transwells were washed with HBSS and immersed into HBSS (600 μL in abluminal side). […] Samples (100 μL) were collected from the abluminal side at specific time-points, and fresh HBSS (100 μL) was used to replace the volume from the abluminal compartments. […] PAX was analysed using reverse phase-HPLC with the gradient method described on Table 2. TR-TPGnRH was quantified in POLARstar Omega plate reader spectrophotometer with λexc 596 and λem 615 nm. The permeability coefficient (Papp) was determined using the equation: […]
(§3) ΔQr, is the flux of drug along time (μg mL^−1), Vr is the volume of the abluminal side (mL), A is the area of the Transwell membrane, C0 is the concentration of drug in the luminal side, and 60, the converser factor from minutes to seconds^8.

The next series has as its system SK-OV-3 cells. In words: Cell uptake of TR-TPGnRH, SK-OV-3. Format: cell-based, human. As for the experimental part:
(§4) The U-87 MG and SK-OV-3 cells were seeded at 20,000 cells/cm^2 in a 12-well plate (76,000 cells per well). Cells were allowed to attach overnight, and then the media was replaced by fresh media (900 μL) containing TR-TPGnRH (50 μg mL^−1 in PBS, 100 μL, pH 7.4). Subsequently, cells were either incubated at 4 or 37° C. for 1 and 4 hours. At the end of each time-point, cells were washed with HBSS twice to wash the free fibres, incubated with 500 μL TrypLE Enzyme at 37° C. for 3 minutes, and then collected by centrifugation at 1,000 rpm for 5 minutes using a C-28A centrifuge. Cells were then re-suspended in PBS (200 μL) and analysed in BD FACSCalibur™ flow cytometer acquiring at least 10,000 events. Unstained cells were used as a control in the flow cytometry settings.

The test system of another series is U-87 MG cells. In words: Cell uptake of TR-TPGnRH, U-87 MG. Format: cell-based, human. As for the experimental part:
as §4

For series [3], the system named is in vitro BBB model (hCMEC/D3 and SC-1800 co-culture). In words: in vitro. The method, then:
as §1, §2, §3

The record followed here is US20210038730A1, “PEPTIDE NANOFIBERS” (UNIVERSITY OF PORTSMOUTH HIGHER EDUCATION CORPORATION, priority 2018, published 2021).

The term Papp A→B denotes the apparent permeability from the apical to the basolateral side of a cell layer.

Turning to `CCCCCCCCCCCCCCCC(=O)Oc1ccc(C[C@H](NC(=O)[C@H](CO)NC(=O)[C@H](Cc2c[nH]c3ccccc23)NC(=O)[C@H](Cc2c[nH]cn2)NC(=O)[C@H](CCC(=O)O)NS(=O)(=O)c2ccc(-c3c4cc5c6c(c4[o+]c4c7c8c(cc34)CCCN8CCC7)CCCN6CCC5)c(S(=O)(=O)[O-])c2)C(=O)NCC(=O)N[C@@H](CC(C)C)C(=O)N[C@@H](CCCNC(=N)N)C(=O)N2CCC[C@H]2C(=O)NCC(N)=O)cc1` [Texas Red-TPGnRH], the “TR-TPGnRH+ cells” value in series [1] (4° C.) amounted to 0.18±0.05%; in series [1] (37° C.), 68.43±0.85%. Moreover, the Papp A→B in series [2] is 6 ×10⁻⁶ cm/s. The Cell uptake in the series with SK-OV-3 cells (SK-OV-3, 1 Hour, 4° C.) turned out to be 10.02 ± 0.52; with SK-OV-3 cells (SK-OV-3, 1 Hour, 37° C.) it was 13.35 ± 0.53; in the series on SK-OV-3 cells (SK-OV-3, 4 Hours, 4° C.), 52.47 ± 3.34; in the series on SK-OV-3 cells (SK-OV-3, 4 Hours, 37° C.), 49.36 ± 4.66; with U-87 MG cells (1 Hour, 4° C.), 20.51 ± 3.10; in the series on U-87 MG cells (1 Hour, 37° C.), 32.64 ± 5.04. For the same molecule, the Cell uptake was found to be 52.36 ± 10.20 in the series with U-87 MG cells (4 Hours, 4° C.) and 91.12 ± 1.11 with U-87 MG cells (4 Hours, 37° C.).

Turning to Texas Red [Free Texas Red], the Papp in series [3] is on record as 111.78 ± 24.30 ×10^−6 cm s^−1.
